Source: patent US12077503B2, “Substituted cyclic amides and their use as herbicides” (FMC CORPORATION, priority 2015, dated 2024)

How the values were obtained:
Format in all cases: in vivo
[1] = system: giant foxtail (Setaria faberi); assay: Test G Pre-Emergence Protocol; details: Setaria faberi, pre-emergence, 312 h, evaluated after 13 days; for pest or weed control at 15.625 g/ha: 15.625 g ai/ha; for pest or weed control at 15.625 g/ha / pest or weed control at 250 g/ha: read-out: Foxtail, Giant damage rating (100=total damage to plant; 0=no damage to plant); for pest or weed control at 62.5 g/ha: 62.5 g ai/ha, 100=total damage to plant, 0=no damage to plant, read-out: plant damage rating, Foxtail, Giant; for pest or weed control at 250 g/ha: 250 g ai/ha
How it was run: (§1)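 Test compound in 0.5% Tween 20 acetone/water (50:50) was applied at three rates (15.625, 62.5, 250 g/ha) to soil sown one day earlier. After 13 days plants were scored for injury, where 0 means unaffected and 100 means completely damaged.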

[2] = system: barnyardgrass (Echinochloa crus-galli); assay: Test G Pre-Emergence Protocol; details: Echinochloa crus-galli, pre-emergence, 312 h, evaluated after 13 days; for pest or weed control at 15.625 g/ha: 15.625 g ai/ha, read-out: Barnyard grass damage rating (100=total damage to plant; 0=no damage to plant); for pest or weed control at 62.5 g/ha: 62.5 g ai/ha, 100=total damage to plant, 0=no damage to plant, read-out: plant damage rating, Barnyardgrass; for pest or weed control at 250 g/ha: 250 g ai/ha, read-out: Barnyardgrass damage rating (100=total damage to plant; 0=no damage to plant)
How it was run: as §1

[3] = system: ivy-leaved morning glory (Ipomoea hederacea); assay: Test G Pre-Emergence Protocol; details: Ipomoea, pre-emergence, 312 h, evaluated after 13 days; for pest or weed control at 15.625 g/ha: 15.625 g ai/ha, read-out: Morning-glory, Ivy-leaved damage rating (100=total damage to plant; 0=no damage to plant); for pest or weed control at 62.5 g/ha: 62.5 g ai/ha, 100=total damage to plant, 0=no damage to plant, read-out: plant damage rating, Morningglory, Ivy-leaved; for pest or weed control at 250 g/ha: 250 g ai/ha, read-out: Morningglory, Ivy-leaved damage rating (100=total damage to plant; 0=no damage to plant)
How it was run: as §1

[4] = system: velvetleaf (Abutilon theophrasti); assay: Test G Pre-Emergence Protocol; details: Abutilon theophrasti, pre-emergence, 312 h, evaluated after 13 days; for pest or weed control at 15.625 g/ha: 15.625 g ai/ha; for pest or weed control at 15.625 g/ha / pest or weed control at 250 g/ha: read-out: Velvetleaf damage rating (100=total damage to plant; 0=no damage to plant); for pest or weed control at 62.5 g/ha: 62.5 g ai/ha, 100=total damage to plant, 0=no damage to plant, read-out: plant damage rating, Velvetleaf; for pest or weed control at 250 g/ha: 250 g ai/ha
How it was run: as §1

[5] = system: redroot pigweed (Amaranthus retroflexus); assay: Test G Pre-Emergence Protocol; details: Amaranthus retroflexus, pre-emergence, 312 h, evaluated after 13 days; for pest or weed control at 15.625 g/ha: 15.625 g ai/ha; for pest or weed control at 15.625 g/ha / pest or weed control at 250 g/ha: read-out: Pigweed, Redroot damage rating (100=total damage to plant; 0=no damage to plant); for pest or weed control at 62.5 g/ha: 62.5 g ai/ha, 100=total damage to plant, 0=no damage to plant, read-out: plant damage rating, Pigweed, Redroot; for pest or weed control at 250 g/ha: 250 g ai/ha
How it was run: as §1

[6] = system: corn (Zea mays); assay: Test G Pre-Emergence Protocol; details: Zea mays, pre-emergence, 312 h, evaluated after 13 days; for plant injury at 15.625 g/ha: 15.625 g ai/ha; for plant injury at 15.625 g/ha / plant injury at 250 g/ha: read-out: Corn damage rating (100=total damage to plant; 0=no damage to plant); for plant injury at 62.5 g/ha: 62.5 g ai/ha, 100=total damage to plant, 0=no damage to plant, read-out: plant damage rating, Corn; for plant injury at 250 g/ha: 250 g ai/ha
How it was run: as §1

[7] = system: giant foxtail (Setaria faberi); assay: Test G Post-Emergence Protocol; details: Setaria faberi, post-emergence, 312 h; for pest or weed control at 15.625 g/ha: 15.625 g ai/ha, evaluated after 13 days (100=total damage to plant; 0=no damage to plant), read-out: Foxtail, Giant damage rating; for pest or weed control at 62.5 g/ha: 62.5 g ai/ha, read-out: Foxtail, Giant damage rating (100=total damage to plant; 0=no damage to plant); for pest or weed control at 62.5 g/ha / pest or weed control at 250 g/ha: evaluated after 13 days; for pest or weed control at 250 g/ha: 250 g ai/ha, read-out: damage to plant, Foxtail, Giant (100=total damage to plant; 0=no damage to plant)
How it was run: (§2)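 Values are percent visual injury at 13 days after treatment (0 none, 100 total). Treatment was a post-emergence spray at 15.625, 62.5 or 250 g/ha on 8-day-old pot plants kept at 24/16 °C.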

[8] = system: barnyardgrass (Echinochloa crus-galli); assay: Test G Post-Emergence Protocol; details: Echinochloa crus-galli, post-emergence, 312 h; for pest or weed control at 15.625 g/ha: 15.625 g ai/ha, evaluated after 13 days (100=total damage to plant; 0=no damage to plant), read-out: Barnyardgrass damage rating; for pest or weed control at 62.5 g/ha: 62.5 g ai/ha, read-out: Barnyardgrass damage rating (100=total damage to plant; 0=no damage to plant); for pest or weed control at 62.5 g/ha / pest or weed control at 250 g/ha: evaluated after 13 days; for pest or weed control at 250 g/ha: 250 g ai/ha, read-out: damage to plant, Barnyardgrass (100=total damage to plant; 0=no damage to plant)
How it was run: as §2

[9] = system: ivy-leaved morning glory (Ipomoea hederacea); assay: Test G Post-Emergence Protocol; details: Ipomoea, post-emergence, 312 h; for pest or weed control at 15.625 g/ha: 15.625 g ai/ha, evaluated after 13 days (100=total damage to plant; 0=no damage to plant), read-out: Morningglory, Ivy-leaved damage rating; for pest or weed control at 62.5 g/ha: 62.5 g ai/ha, read-out: Morningglory, Ivy-leaved damage rating (100=total damage to plant; 0=no damage to plant); for pest or weed control at 62.5 g/ha / pest or weed control at 250 g/ha: evaluated after 13 days; for pest or weed control at 250 g/ha: 250 g ai/ha, read-out: damage to plant, Morningglory, Ivy-leaved (100=total damage to plant; 0=no damage to plant)
How it was run: as §2

[10] = system: velvetleaf (Abutilon theophrasti); assay: Test G Post-Emergence Protocol; details: Abutilon theophrasti, post-emergence, 312 h; for pest or weed control at 15.625 g/ha: 15.625 g ai/ha, evaluated after 13 days (100=total damage to plant; 0=no damage to plant), read-out: Velvetleaf damage rating; for pest or weed control at 62.5 g/ha: 62.5 g ai/ha, read-out: Velvetleaf damage rating (100=total damage to plant; 0=no damage to plant); for pest or weed control at 62.5 g/ha / pest or weed control at 250 g/ha: evaluated after 13 days; for pest or weed control at 250 g/ha: 250 g ai/ha, read-out: damage to plant, Velvetleaf (100=total damage to plant; 0=no damage to plant)
How it was run: as §2

[11] = system: redroot pigweed (Amaranthus retroflexus); assay: Test G Post-Emergence Protocol; details: Amaranthus retroflexus, post-emergence, 312 h; for pest or weed control at 15.625 g/ha: 15.625 g ai/ha, evaluated after 13 days (100=total damage to plant; 0=no damage to plant), read-out: Pigweed, Redroot damage rating; for pest or weed control at 62.5 g/ha: 62.5 g ai/ha, read-out: Pigweed, Redroot damage rating (100=total damage to plant; 0=no damage to plant); for pest or weed control at 62.5 g/ha / pest or weed control at 250 g/ha: evaluated after 13 days; for pest or weed control at 250 g/ha: 250 g ai/ha, read-out: damage to plant, Pigweed, Redroot (100=total damage to plant; 0=no damage to plant)
How it was run: as §2

[12] = system: corn (Zea mays); assay: Test G Post-Emergence Protocol; details: Zea mays, post-emergence, 312 h; for plant injury at 15.625 g/ha: 15.625 g ai/ha, evaluated after 13 days (100=total damage to plant; 0=no damage to plant), read-out: Corn damage rating; for plant injury at 62.5 g/ha: 62.5 g ai/ha, read-out: Corn damage rating (100=total damage to plant; 0=no damage to plant); for plant injury at 62.5 g/ha / plant injury at 250 g/ha: evaluated after 13 days; for plant injury at 250 g/ha: 250 g ai/ha, read-out: damage to plant, Corn (100=total damage to plant; 0=no damage to plant)
How it was run: as §2

| SMILES | pest or weed control at 15.625 g/ha [1] | pest or weed control at 62.5 g/ha [1] | pest or weed control at 250 g/ha [1] | pest or weed control at 15.625 g/ha [2] | pest or weed control at 62.5 g/ha [2] | pest or weed control at 250 g/ha [2] | pest or weed control at 15.625 g/ha [3] | pest or weed control at 62.5 g/ha [3] | pest or weed control at 250 g/ha [3] | pest or weed control at 15.625 g/ha [4] | pest or weed control at 62.5 g/ha [4] | pest or weed control at 250 g/ha [4] | pest or weed control at 15.625 g/ha [5] | pest or weed control at 62.5 g/ha [5] | pest or weed control at 250 g/ha [5] | plant injury at 15.625 g/ha [6] | plant injury at 62.5 g/ha [6] | plant injury at 250 g/ha [6] | pest or weed control at 15.625 g/ha [7] | pest or weed control at 62.5 g/ha [7] | also measured |
| --- | --- | --- | --- | --- | --- | --- | --- | --- | --- | --- | --- | --- | --- | --- | --- | --- | --- | --- | --- | --- | --- |
| COc1cccc(NC(=O)[C@H]2C(=O)N(C)C[C@@H]2c2ccc(C(F)(F)F)cc2)c1C (racemic) [Compound 1446] | 0% | 0% | 40% | 0% | 0% | 0% | 0% | 0% | 0% | 0% | 0% | 0% | 0% | 0% | 0% | 0% | 0% | 0% | 0% | 0% | pest or weed control at 250 g/ha [7]: 0%; pest or weed control at 15.625 g/ha [8]: 0%; pest or weed control at 62.5 g/ha [8]: 0%; pest or weed control at 250 g/ha [8]: 0%; pest or weed control at 15.625 g/ha [9]: 0%; pest or weed control at 62.5 g/ha [9]: 0%; pest or weed control at 250 g/ha [9]: 0%; pest or weed control at 15.625 g/ha [10]: 0%; pest or weed control at 62.5 g/ha [10]: 0%; pest or weed control at 250 g/ha [10]: 0%; pest or weed control at 15.625 g/ha [11]: 0%; pest or weed control at 62.5 g/ha [11]: 0%; pest or weed control at 250 g/ha [11]: 0%; plant injury at 15.625 g/ha [12]: 0%; plant injury at 62.5 g/ha [12]: 0%; plant injury at 250 g/ha [12]: 0% |
| CSc1nccc(NC(=O)[C@@H]2C(=O)N(C)C[C@H]2c2ccc(C(F)(F)F)cc2)n1 (racemic) [Compound 1516] | 0% | 0% | 0% | 0% | 0% | 0% | 0% | 0% | 0% | 0% | 0% | 0% | 0% | 0% | 0% | 0% | 0% | 0% | 0% | 0% | pest or weed control at 250 g/ha [7]: 0%; pest or weed control at 15.625 g/ha [8]: 0%; pest or weed control at 62.5 g/ha [8]: 0%; pest or weed control at 250 g/ha [8]: 0%; pest or weed control at 15.625 g/ha [9]: 0%; pest or weed control at 62.5 g/ha [9]: 0%; pest or weed control at 250 g/ha [9]: 0%; pest or weed control at 15.625 g/ha [10]: 0%; pest or weed control at 62.5 g/ha [10]: 0%; pest or weed control at 250 g/ha [10]: 0%; pest or weed control at 15.625 g/ha [11]: 0%; pest or weed control at 62.5 g/ha [11]: 0%; pest or weed control at 250 g/ha [11]: 0%; plant injury at 15.625 g/ha [12]: 0%; plant injury at 62.5 g/ha [12]: 0%; plant injury at 250 g/ha [12]: 0% |
